Key:
normal rat = test: Effect of prolonging normal rat awakening time (electroencephalogram/electromyogram); format: in vivo; settings: rats, single oral dose of 3 mg/kg
Description: Biological Example 2: Effect of Prolonging Normal Rat Awakening Time
Chronic electrodes were placed in the brain and cervical muscles of rats to prepare rats in which electroencephalogram and electromyogram can be measured. After a recovery period of one week or more, the rat and a biological signal amplifier were connected in a shield box that blocked sound and electrical noise. After acclimatization in a measurement cage for 1 hour or more, various doses of the compound of the present invention were orally administered to rats in a single dose, and electroencephalogram and electromyogram were recorded 6 hours after the oral administration. After the measurement was completed, the rats were returned to a breeding cage each time, and a vehicle and each compound were evaluated with a washout period of one week or more.
The recorded electroencephalogram and electromyogram were analyzed using SleepSign Ver. 3 and divided into epochs every 10 seconds, and the stage was determined for any of awakening, non-REM sleep or REM sleep, with reference to characteristics of the electroencephalogram and electromyogram and spectral analysis results of each frequency component of the brain wave. […]

Human DP receptor = target: T1, Human DP receptor (Homo sapiens, UniProt Q13258); test: Measurement of DP receptor antagonistic activity using human DP receptor expressing cells (cAMP-HTRF); format: cell-based; settings: inhibition of cAMP production increased by 10 nmol/L prostaglandin D2
T1 construct: expressed in transfected cells
T1 sequence (Q13258 1-359): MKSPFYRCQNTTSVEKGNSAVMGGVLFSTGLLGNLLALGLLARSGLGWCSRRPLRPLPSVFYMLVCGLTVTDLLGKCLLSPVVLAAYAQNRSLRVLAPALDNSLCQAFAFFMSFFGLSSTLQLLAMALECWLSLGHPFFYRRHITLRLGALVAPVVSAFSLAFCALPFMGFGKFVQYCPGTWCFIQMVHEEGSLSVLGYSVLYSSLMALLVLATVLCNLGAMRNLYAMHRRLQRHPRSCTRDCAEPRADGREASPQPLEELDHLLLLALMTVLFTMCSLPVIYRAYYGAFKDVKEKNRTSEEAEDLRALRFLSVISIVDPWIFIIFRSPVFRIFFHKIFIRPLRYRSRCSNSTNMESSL
Description: Biological Example 1: Measurement of DP Receptor Antagonistic Activity Using Human DP Receptor Expressing Cells
cAMP-HTRF kit (SCETI MEDICAL LABO K.K., 62AM6PEJ) was used to measure DP receptor antagonistic activity. To a 384 well plate was added 10 μL/well of the compound of the present invention prepared at various concentrations and prostaglandin D2 (final concentration 10 nmol/L). Human DP receptor-expressing cells were suspended in phosphate buffer containing 2 μmoL/L diclofenac and 1 mmol/L IBMX (3-isobutyl-1-methylxantine) and seeded to 5000 cells/10 μL/well. After cell seeding, the cells were incubated at room temperature for 1 hour. Thereafter, anti-cAMP Cryptate conjugate and a cAMP-d2 solution were added according to a method of the measurement kit, and the mixture was incubated at room temperature for 1 hour, then the cAMP concentration in the sample was quantified.
Intensity of DP receptor antagonistic action by the compound of the present invention was represented by IC50 value (concentration of the compound of the present invention required to inhibit 50% of cAMP production in the absence of the compound of the present invention) calculated from an inhibition ratio to the cAMP production increased by 10 nmol/L prostaglandin D2 stimulation.

[1] = Measurement of concentration of compound in cerebrospinal fluid (CSF) after oral administration; format: in vivo; settings: rat, 3 mg/kg, male Wistar rats, oral 3 mg/5 mL/kg, five test substances mixed, CSF collected 3 hours after administration
Description: Pharmacokinetic Test 1: Measurement of Concentration of Compound of Present Invention in Cerebrospinal Fluid (Hereinbelow, CSF)
Five test substances were mixed, and a test substance solution was prepared so that the dose of each test substance was 3 mg/5 mL/kg. The medium used was 5% DMSO 20% kolliphor HS15/propylene glycol (7:3). The test substance solution was orally administered to male 8- to 10-week-old Wistar rats purchased from Charles River Japan. Three hours after administration, the rats were anesthetized and CSF was collected by cisternal puncture. The same amount of ethanol (wako) as CSF was taken with a syringe used for collection, and the compound adsorbed on the syringe was recovered by washing.
Candesartan (TRC) was used as an internal standard substance, 40 μL of acetonitrile and 160 μL of Candesartan-containing acetonitrile/ethanol (7:3) were added to 10 μL of the obtained CSF sample, and the mixture was stirred. To prepare a calibration curve, 40 μL of the compound solution and 160 μL of Candesartan-containing acetonitrile/ethanol (7:3) were added to 10 μL of plasma, and the mixture was stirred. The entire amount of each solution was transferred to a deproteinization filter plate and suction filtered. The obtained filtrate was appropriately diluted with acetonitrile/water (1:1) and used for measurement. In the measurement, standard samples for calibration curve were prepared in the same matrix and analyzed in the same manner. The measurement was performed under the following conditions.
Liquid Chromatography System: Prominence UFLCXR (Shimadzu Corporation),
Column: Shim-pack XR-ODSII 2.0 mm ID×75 mm (Shimadzu Corporation),
Column temperature: 40° C.,
Mobile phase: A: 0.2% formic acid 5 mmol/L ammonium acetate aqueous solution, B: acetonitrile,
Mass spectrometry system: API4000, API5000 (AB SCIEX)
A regression equation was calculated from the peak area ratio (peak area of the test substance/peak area of the internal standard substance) obtained by measuring the standard samples for calibration curve using analysis software Analyst ver. 1.5.2 (AB SCIEX). The peak area ratio was also obtained for a measurement sample and substituted into the regression equation to calculate a quantitative value. In calculation of mean value and standard deviation, points below the lower limit of quantification were calculated as 0.

Row | Compound | awakening time-prolonging effect (difference in total awakening time of 6 hours after administration vs vehicle-administered group) (normal rat) [min] | IC50 (Human DP receptor) [nM] | concentration at 3 h [1] [ng/mL]
1 | Cc1cc(/C=C/CC2CCCCC2)cc(C)c1C(=O)Nc1cc(CC(=O)O)ccc1Cl [Example 8, (4-Chloro-3-{4-[(1E)-3-cyclohexylprop-1-en-1-yl]-2,6-dimethylbenzamide}phenyl)acetic Acid] | 48 | 3.7 | 28
2 | Cc1cc(OCCC2CCCCO2)cc(C)c1C(=S)Nc1cc(C(C)(C)C(=O)O)ccc1F (stereo not drawn) [Example 20, 2-{3-[({2,6-Dimethyl-4-[2-(tetrahydro-2H-pyran-2-yl)ethoxy]phenyl}carbothioyl)amino]-4-fluorophenyl}-2-methylpropanoic Acid] | – | 35 | 52
3 | O=C(O)Cc1ccc(Cl)c(NC(=S)c2ccc(OCCc3ccccc3)cc2C(F)(F)F)c1 [Example 10-4, (4-Chloro-3-{[4-(2-phenylethoxy)-2-(trifluoromethyl)benzene-1-carbothioyl]amino}phenyl)acetic Acid] | – | 5.1 | 34
4 | Cc1cc(C#CCC2CCCCC2)cc(C)c1C(=O)Nc1cc(CC(=O)O)ccc1Cl [Example 7, {4-Chloro-3-[4-(3-cyclohexylprop-1-yn-1-yl)-2,6-dimethylbenzamide]phenyl}acetic Acid] | – | 16 | 45
5 | Cc1cc(OCCC2CCCCO2)cc(C)c1C(=S)Nc1cc(C(C)C(=O)O)ccc1Cl (stereo in doubt) [Example 21, 2-(4-Chloro-3-{[(2,6-dimethyl-4-{2-[(2R)-tetrahydro-2H-pyran-2-yl]ethoxy}phenyl)carbothioyl]amino}phenyl)propanoic Acid] | – | 7.8 | 66
6 | Cc1cc(OCCC2CCCCC2)cc(C)c1C(=O)Nc1cc(CC(=O)O)ccc1Cl [Example 4-1, {4-Chloro-3-[4-(2-cyclohexylethoxy)-2,6-dimethylbenzamide]phenyl}acetic Acid] | – | 11 | 29
7 | Cc1cc(OC2Cc3ccccc3C2)cc(C)c1C(=O)Nc1cc(CC(=O)O)ccc1F [Example 5, (3-{4-[(2,3-Dihydro-1H-inden-2-yl)oxy]-2,6-dimethylbenzamide}-4-fluorophenyl)acetic Acid] | – | 10 | –
8 | O=C(O)Cc1ccc(Cl)c(NC(=S)c2ccc(OCCC3CCCCO3)cc2C(F)(F)F)c1 (stereo not drawn) [Example 10-2, [4-Chloro-3-({4-[2-(oxan-2-yl)ethoxy]-2-(trifluoromethyl)benzene-1-carbothioyl}amino)phenyl]acetic Acid] | – | – | 55
9 | Cc1cc(OCC[C@H]2CCCCO2)cc(C)c1C(=S)Nc1cc(CC(=O)O)ccc1Cl [Example 12, {4-Chloro-3-[(2,6-dimethyl-4-{2-[(2R)-oxan-2-yl]ethoxy}benzene-1-carbothioyl]amino}phenyl}acetic Acid] | 60 | 4.8 | 48
10 | Cc1cc(OCCC2CCCCO2)cc(C)c1C(=S)Nc1cc(CC(=O)O)ccc1Cl (stereo not drawn) [Example 10, [4-Chloro-3-({2,6-dimethyl-4-[2-(oxan-2-yl)ethoxy]benzene-1-carbothioyl}amino)phenyl]acetic Acid] | – | 9.6 | 43
11 | Cc1cc(OCCC2CCCCC2)cc(C)c1C(=S)Nc1cc(CC(=O)O)ccc1Cl [Example 10-1, (4-Chloro-3-{[4-(2-cyclohexylethoxy)-2,6-dimethylbenzene-1-carbothioyl]amino}phenyl)acetic Acid] | – | 1.7 | 36
12 | Cc1cc(OCCC2CCCCO2)cc(C)c1C(=O)Nc1cc(CC(=O)O)ccc1Cl (stereo not drawn) [Example 4, (4-Chloro-3-{2,6-dimethyl-4-[2-(oxan-2-yl)ethoxy]benzamide}phenyl)acetic Acid] | – | 58 | –
13 | O=C(O)Cc1ccc(Cl)c(NC(=O)c2ccc(OCCC3CCCCC3)cc2C(F)(F)F)c1 [Example 2-1, {4-Chloro-3-[4-(2-cyclohexylethoxy)-2-(trifluoromethyl)benzamide]phenyl}acetic Acid] | – | 34 | –

From patent US11319296B2, “DP antagonist” (ONO PHARMACEUTICAL CO., LTD., priority 2018, dated 2022)
